Source: patent US20230391739A1, “ARYL DERIVATIVES FOR TREATING TRPM3 MEDIATED DISORDERS” (Katholieke Universiteit Leuven, priority 2020, published 2023)

Target: T1, mouse TRPM3α2 (mTRPM3) ion channel (Mus musculus, UniProt J9SQF3)
T1 construct: expressed in transfected cells; host or cells: flip-in HEK293
Test: TRPM3 ion channel driven Ca2+ uptake, Fluo-4 AM assay, PS-stimulated (mTRPM3)
Assay type: cell-based
Conditions: TRPM3 overexpressing flip-in HEK293 cells stimulated with Pregnenolone sulfate (PS) 50 μM, activity ranges A, B, C
Method: Monitoring the TRPM3 Ion Channel Driven Ca^2+ Uptake.
In order to monitor the inhibition of the mouse TRPM3α2 (mTRPM3) ion channel by the compounds of the invention, a cellular system making use of an mTRPM3alpha2 or hTRPM3 overexpressing cell line (flip-in HEK293) was used. The TRPM3 channel was stimulated/opened with Pregnenolone sulfate (PS) (50 μM) which results in Ca^2+ influx.
For mTRPM3, the intracellular Ca^2+ was measured with a Calcium responsive dye, Fluor-4 AM ester (Invitrogen). Cells were cultured until a confluence of 80-90%, washed with Versene (Invitrogen) and detached from the surface by a short incubation with 0.05% Trypsin (Invitrogen). The trypsination process was stopped by the addition of complete cell culture medium (DMEM, glutamax, 10% FCS, NEAA, Pen-Strep). Cells were collected and resuspended in Krebs buffer without Calcium at RT.
Prior the cell seeding (±2000 cells/well into a black, 384 well plate (Greiner)) the diluted compound was added in the assay plate, together with the PS dissolved in Krebs buffer containing Calcium. […] Directly after cell addition the plates were read on an Envision fluorescence reader (Perkin Elmer) by an Excitation of 485 nm and emission at 535 nm.
Channel inhibition was calculated compared to a non-PS stimulated control versus a condition stimulated with PS (50 μM) with vehicle. The ability of the compounds of the invention to inhibit this activity was determined as: Percentage inhibition=[1−((RFU determined for sample with test compound present−RFU determined for sample with positive control inhibitor) divided by (RFU determined in the presence of vehicle−RFU determined for sample with positive control inhibitor))]*100.
The activities of the Example compounds tested are depicted in the table below.

T1 sequence (J9SQF3 1-1709 isoform J9SQF3-12): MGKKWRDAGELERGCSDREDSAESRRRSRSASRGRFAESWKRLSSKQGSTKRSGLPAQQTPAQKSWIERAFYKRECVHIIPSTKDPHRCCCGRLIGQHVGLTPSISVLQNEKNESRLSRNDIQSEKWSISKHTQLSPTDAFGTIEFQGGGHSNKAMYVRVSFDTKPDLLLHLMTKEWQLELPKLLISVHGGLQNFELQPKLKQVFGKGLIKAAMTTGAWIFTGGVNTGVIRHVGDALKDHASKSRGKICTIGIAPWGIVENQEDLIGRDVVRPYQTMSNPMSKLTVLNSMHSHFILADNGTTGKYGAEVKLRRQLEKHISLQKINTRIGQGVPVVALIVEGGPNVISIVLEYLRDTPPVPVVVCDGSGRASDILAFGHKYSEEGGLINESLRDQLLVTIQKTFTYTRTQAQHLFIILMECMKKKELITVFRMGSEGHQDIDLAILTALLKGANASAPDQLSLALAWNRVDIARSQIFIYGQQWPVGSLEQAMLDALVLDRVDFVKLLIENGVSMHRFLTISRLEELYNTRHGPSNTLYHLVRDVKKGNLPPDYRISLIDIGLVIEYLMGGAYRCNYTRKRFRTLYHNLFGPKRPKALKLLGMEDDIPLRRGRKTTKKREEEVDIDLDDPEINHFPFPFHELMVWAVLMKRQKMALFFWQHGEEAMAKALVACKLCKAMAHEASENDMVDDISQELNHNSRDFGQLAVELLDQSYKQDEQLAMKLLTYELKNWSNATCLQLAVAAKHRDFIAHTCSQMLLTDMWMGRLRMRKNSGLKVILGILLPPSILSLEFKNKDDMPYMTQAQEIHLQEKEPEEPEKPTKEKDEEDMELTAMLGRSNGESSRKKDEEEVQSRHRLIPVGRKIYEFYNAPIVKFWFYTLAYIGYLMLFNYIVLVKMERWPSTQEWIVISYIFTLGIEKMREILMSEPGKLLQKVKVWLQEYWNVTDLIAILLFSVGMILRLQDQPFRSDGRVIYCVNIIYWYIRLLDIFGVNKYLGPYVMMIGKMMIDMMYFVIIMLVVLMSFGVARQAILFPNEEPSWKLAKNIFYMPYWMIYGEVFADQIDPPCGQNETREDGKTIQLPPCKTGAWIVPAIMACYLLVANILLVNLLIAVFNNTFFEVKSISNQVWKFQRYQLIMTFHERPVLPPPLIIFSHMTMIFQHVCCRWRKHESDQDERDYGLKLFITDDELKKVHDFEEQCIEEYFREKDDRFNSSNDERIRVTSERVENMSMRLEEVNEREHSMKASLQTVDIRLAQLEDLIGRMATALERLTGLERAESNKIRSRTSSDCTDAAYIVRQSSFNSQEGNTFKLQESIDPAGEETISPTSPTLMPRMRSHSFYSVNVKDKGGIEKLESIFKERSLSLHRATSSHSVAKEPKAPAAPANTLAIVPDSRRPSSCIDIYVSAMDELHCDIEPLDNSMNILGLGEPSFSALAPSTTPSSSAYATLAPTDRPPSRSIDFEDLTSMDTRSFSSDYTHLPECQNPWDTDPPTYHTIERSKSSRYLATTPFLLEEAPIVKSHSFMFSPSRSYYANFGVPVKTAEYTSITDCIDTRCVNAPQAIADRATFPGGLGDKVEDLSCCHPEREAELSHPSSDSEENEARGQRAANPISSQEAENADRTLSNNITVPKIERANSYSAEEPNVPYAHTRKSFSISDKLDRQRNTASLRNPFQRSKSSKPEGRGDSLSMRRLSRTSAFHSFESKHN

Row | SMILES | IC50
1 | Cc1oc2ccc(OCc3ccccc3F)cc2c1C(=O)NC1(C(N)=O)CCOC1 (single isomer, unassigned) [Cpd 323-En 1, N-(3-carbamoyltetrahydrofuran-3-yl)-5-((2-fluorobenzyl)oxy)-2-methylbenzofuran-3-carboxamide] | < 1 µM
2 | Cc1oc2ccc(OCc3ccccc3F)cc2c1C(=O)NC1(C(N)=O)CCOC1 (single isomer, unassigned) [Cpd 323-En 2, N-(3-carbamoyltetrahydrofuran-3-yl)-5-((2-fluorobenzyl)oxy)-2-methylbenzofuran-3-carboxamide] | < 1 µM
3 | Cc1oc2ccc(OCc3ccccc3F)cc2c1C(=O)NC1(CO)CCOC1 (single isomer, unassigned) [Cpd 327-En 1, 5-((2-fluorobenzyl)oxy)-N-(3-(hydroxymethyl)tetrahydrofuran-3-yl)-2-methylbenzofuran-3-carboxamide] | < 1 µM
4 | Cc1oc2ccc(OCc3ccccc3F)cc2c1C(=O)NC1(CO)CCOC1 (single isomer, unassigned) [Cpd 327-En 2, 5-((2-fluorobenzyl)oxy)-N-(3-(hydroxymethyl)tetrahydrofuran-3-yl)-2-methylbenzofuran-3-carboxamide] | < 1 µM
5 | Cc1oc2ccc(OCc3ccccc3F)cc2c1C(=O)NC(C)CO (single isomer, unassigned) [Cpd 328-En 1] | < 1 µM
6 | Cc1oc2ccc(OCc3ccccc3F)cc2c1C(=O)NC(C)CO (single isomer, unassigned) [Cpd 328-En 2] | < 1 µM
7 | Cc1oc2ccc(OCc3ccccc3F)cc2c1C(=O)N[C@@H]1COC[C@@H]1O (single isomer, unassigned) [Cpd 329-En 1] | < 1 µM
8 | Cc1oc2ccc(OCc3ccccc3F)cc2c1C(=O)N[C@@H]1COC[C@@H]1O (single isomer, unassigned) [Cpd 329-En 2] | < 1 µM
9 | Cc1oc2ccc(OCc3ccccc3F)cc2c1C(=O)N[C@@H]1COC[C@H]1O (single isomer, unassigned) [Cpd 330-En 1] | < 1 µM
10 | Cc1oc2ccc(OCc3ccccc3F)cc2c1C(=O)NC1COCC1(F)F (single isomer, unassigned) [Cpd 331-En 1] | > 20 µM
11 | Cc1oc2ccc(OCc3ccccc3F)cc2c1C(=O)NC1COCC1(F)F (single isomer, unassigned) [Cpd 331-En 2] | < 1 µM
12 | Cc1oc2ccc(OCc3ccccc3S(C)(=O)=O)cc2c1C(=O)NC1CCNCC1(F)F (single isomer, unassigned) [Cpd 333-En 1, N-(3,3-difluoropiperidin-4-yl)-2-methyl-5-((2-(methylsulfonyl)benzyl)oxy)benzofuran-3-carboxamide] | 1 to 20 µM
13 | Cc1oc2ccc(OCc3ccccc3S(C)(=O)=O)cc2c1C(=O)NC1CCNCC1(F)F (single isomer, unassigned) [Cpd 333-En 2, N-(3,3-difluoropiperidin-4-yl)-2-methyl-5-((2-(methylsulfonyl)benzyl)oxy)benzofuran-3-carboxamide] | < 1 µM
14 | Cc1oc2ccc(OCc3ccccc3F)cc2c1C(=O)NC1(CO)CCNC1=O (single isomer, unassigned) [Cpd 334-En 1] | < 1 µM
15 | Cc1oc2ccc(OCc3ccccc3F)cc2c1C(=O)NC1(CO)CCNC1=O (single isomer, unassigned) [Cpd 334-En 2] | < 1 µM
16 | Cc1oc2ccc(OC(CO)c3ccccc3F)cc2c1C(=O)N[C@@H](CO)C(N)=O (single isomer, unassigned) [Cpd 335-Dia 1] | < 1 µM
17 | Cc1oc2ccc(OC(CO)c3ccccc3F)cc2c1C(=O)N[C@@H](CO)C(N)=O (single isomer, unassigned) [Cpd 335-Dia 2] | < 1 µM
18 | Cc1oc2ccc(OC(C)c3ccccc3)cc2c1C(=O)N[C@@H](CO)C(N)=O (single isomer, unassigned) [Cpd 336-Dia 1] | < 1 µM
19 | Cc1oc2ccc(OC(C)c3ccccc3)cc2c1C(=O)N[C@@H](CO)C(N)=O (single isomer, unassigned) [Cpd 336-Dia 2] | < 1 µM
